Source: patent publication US10548319B2, “Compositions and methods for synthetic amphiphile-induced changes in plant root morphology” (The Curators of the University of Missouri, priority 2014, dated 2020)
Where two headings read alike, the source gives them in different places. * marks the point of attachment. (CH3(CH2)17)2NCOCH2OCH2CO = CCCCCCCCCCCCCCCCCCN(CCCCCCCCCCCCCCCCCC)C(=O)COCC(=O)*; (C12H25)2NCOCH2CH2CO = CCCCCCCCCCCCN(CCCCCCCCCCCC)C(=O)CCC(=O)*; O(CH2)6CH3 = CCCCCCCO*; OC7H15 = CCCCCCCO*

Columns and labels:
[1] = study of hydraphiles having various chain lengths; cited from earlier work
[2] = tested on: A. thaliana (Col-0) plant; assay type: in vivo, Arabidopsis thaliana; details: for Decrease in primary root length: vs PNS
Source text: The effect treating a plant with a composition comprising a synthetic amphiphile on root morphology or other physical characteristics or attributes can be quantitated. For example, a change in primary root length can be determined by measuring the difference, if any, in primary root length of a plant treated with the composition compared to the average of a control sample of plants of the same type grown under identical conditions in the absence of the composition. A change in lateral root density can be determined by comparing the lateral root density of a plant treated with the composition to the average lateral root density of a sample grown under identical conditions in the absence of the composition. Lateral root density can be determined by dividing the number of lateral roots by the length of the primary root. In certain embodiments for any quantitated characteristic or attribute, the average value of the control is the average of a statistically significant population of control plants. For example, in certain illustrative embodiments disclosed herein, three trials of about 20 plants each were used to determine the average of the control.
Illustrative of certain embodiments, approximately 60 plants were grown on PNS media (no additives) and root lengths and the number of lateral roots were recorded for each. The data points were averaged to obtain the following baseline values: primary root length=40.4±3.8 mm and number of lateral roots=6.1±0.8, respectively. The lateral root density was obtained by dividing the number of lateral roots by the length (in mm) of the primary root. The control value was (6.1/[…]=) 0.15.
Test compounds were added to the growth medium as 0.2% by volume DMSO. […]
To make 500 mL PN media, 485 mL doubly distilled (“dd”) H2O was first added to an autoclave beaker. The following salts and nutrients were added to a beaker and mixed well: 5 mL of 250 mM of KPO4 (pH 5.5), 2.5 mL of 1M KNO3, 1 mL of 1M MgSO4, 1 mL of 1M Ca(NO3)2, 0.5 mL of Ferric EDTA (1000× or 49 mM) and 0.5 mL of Micronutrients (1000×). In a 1 L autoclaved bottle, 0.6% (3 g) of bacteriological agar was added, followed by 500 mL solution prepared above. The media was autoclaved using the Liquid-30 program.
PNS plates were used for plating sterile Arabidopsis thaliana (Columbia-0) seeds. A sterile stock of PNS agar was maintained. Sterile sucrose was added to PN media to make PNS media. To make PNS media containing 0.5% sucrose, 5 mL of 50% sucrose (sterile filtered) was added to 500 mL of PN agar and mixed well.
The stored PNS media was liquefied using a water bath and allowed to cool to 55° C. The type of plates, compounds, and concentrations to be used were confirmed while the media cooled. The plates were labeled on the cover and the bottom with all the relevant information. 50 mL sterile centrifuge tubes were used to measure 29,940 μL (29.94 mL) PNS media. A fresh sterile 50 mL tube was used for each plate. The desired amount and concentration of compound was added to the PNS media, mixed by inverting the tube and poured in the plate. Total volume of media and compound in each plate was kept constant at 30 mL. A maximum of 60 μL (0.2% by volume) compound was added per plate. For example: 60 μL of 25 mM compound was added to 29.94 mL PNS media to get final concentration of 50 μM compound in PNS media. Plates were incubated at room temperature for 2 hours before plating seeds on them.
Hands and bench area were washed thoroughly before beginning. Sterilizing solution was prepared in a sterile 15 mL centrifuge tube, by mixing 5 mL of 30% bleach and 5 μL of 10% Triton X-100. A. thaliana Col-0 seeds were added to sterile 1.5 mL micro-centrifuge tube. 500 μL of sterilizing solution (30% bleach+0.01% Triton X-100) was added to the seeds, vortexed for 3 seconds and incubated at room temperature for 8 minutes. After 8 minutes, bleach was removed and 1 mL autoclaved MilliQ water was added. […]

| Molecule | Sodium cation conduction [1] | Primary root length ([2]; hydraphile 20 μM in PNS media) [mm] | Primary root length ([2]; hydraphile 20 μM in PNS media, listed as C8 benzyl hydraphile (compound 1)) [mm] | Decrease in primary root length ([2]; hydraphile 20 μM) [%] | Lateral root density ([2]; hydraphile 20 μM, lateral roots divided by primary root length) | Primary root length ([2]; hydraphile 50 μM in PNS media) [mm] | Primary root length ([2]; hydraphile 50 μM in PNS media, listed as C8 benzyl hydraphile (compound 1)) [mm] | Decrease in primary root length ([2]; hydraphile 50 μM) [%] | Lateral root density ([2]; hydraphile 50 μM, lateral roots divided by primary root length) | Effect on number of lateral roots relative to control ([2]; SAT 50 μM) | Effect on primary root length relative to control ([2]; SAT 50 μM) | Overall effect on growth / root morphology relative to control ([2]; SAT 50 μM) | Lateral root density ([2]; SAT 50 μM in PNS) | Number of lateral roots ([2]; SAT 50 μM in PNS) | Primary root length ([2]; SAT 50 μM in PNS) [mm] |
| --- | --- | --- | --- | --- | --- | --- | --- | --- | --- | --- | --- | --- | --- | --- | --- |
| c1ccc(CN2CCOCCOCCN(CCCCCCCCN3CCOCCOCCN(CCCCCCCCN4CCOCCOCCN(Cc5ccccc5)CCOCCOCC4)CCOCCOCC3)CCOCCOCC2)cc1 [C8 hydraphile (1)] | did not conduct sodium cation efficiently | 34 ± 7 | 34±7 | 9 | 0.15±0.01 | 31 ± 6 | 31±6 | 19 | 0.18±0.03 | – | – | – | – | – | – |
| (C12H25)2NCOCH2CH2CO-GGGPSGS-OC7H15 ({(C12H25)2NCOCH2CH2CO}-GGGPSGS-OC7H15; SMILES CCCCCCCCCCCCN(CCCCCCCCCCCC)C(=O)CCC(=O)NCC(=O)NCC(=O)NCC(=O)N1CCC[C@H]1C(=O)N[C@@H](CO)C(=O)NCC(=O)N[C@@H](CO)C(=O)OCCCCCCC) [Compound 15] | – | – | – | – | – | – | – | – | – | does not show such a dramatic effect | dramatic reduction in primary root length | shorter primary root and new lateral roots | 0.51 ± 0.03 | 4.5 ± 0.4 | 9.0 ± 1.2 |
| [CH3(CH2)17]2NCOCH2OCH2CO-Gly-Gly-Gly-Pro-Gly-Gly-Gly-O(CH2)6CH3 ({(CH3(CH2)17)2NCOCH2OCH2CO}-GGGPGGG-{O(CH2)6CH3}; SMILES CCCCCCCCCCCCCCCCCCN(CCCCCCCCCCCCCCCCCC)C(=O)COCC(=O)NCC(=O)NCC(=O)NCC(=O)N1CCC[C@H]1C(=O)NCC(=O)NCC(=O)NCC(=O)OCCCCCCC) [Compound 9] | – | – | – | – | – | – | – | – | – | within experimental error of the PNS control | within experimental error of the PNS control | – | 0.17 ± 0.02 | 6.8 ± 1.3 | 40.5 ± 3.4 |
